Measurements as given in ChEMBL document CHEMBL1201862, “PubChem BioAssay data set” (2004).
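48-hour exposure; five concentrations; linearly interpolated endpoints. The concentration for 50% growth inhibition is given as GI50.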 Active and inactive are the calls of the source. Cut-off read from the data, not from the text of the source: active = GI50 up to about 1.1 µM and inactive = higher.

Legend:
Assay in all cases: NCI-60 cell line screen, 48 h
UACC-62 = system: UACC-62
SF-295 = system: SF-295
TK-10 = system: TK-10
SF-268 = system: SF-268
HCC 2998 = system: HCC 2998
SW-620 = system: SW-620
SK-MEL-28 = system: SK-MEL-28
U-251 = system: U-251
EKVX = system: EKVX
A549 = system: A549
CCRF-CEM = system: CCRF-CEM
SNB-75 = system: SNB-75
NCI/ADR-RES = system: NCI/ADR-RES
SNB-19 = system: SNB-19
CAKI-1 = system: CAKI-1
NCI-H460 = system: NCI-H460
HL-60 = system: HL-60
SN12C = system: SN12C
PC-3 = system: PC-3
SR = system: SR

Measured: GI50

Clc1ccc(-c2nc3ccc4ccccc4c3c3c2CCCC3)cc1
inactive: UACC-62 > 100 µM | SF-295 > 100 µM | TK-10 > 100 µM | SF-268 > 100 µM | HCC 2998 > 100 µM | SW-620 > 100 µM | SK-MEL-28 > 100 µM | U-251 94.4 µM | EKVX 30.1 µM | A549 63.4 µM | CCRF-CEM 68.4 µM | SNB-75 > 100 µM | NCI/ADR-RES > 100 µM | SNB-19 > 100 µM | CAKI-1 > 100 µM | NCI-H460 97.3 µM

CC1(C)OCC(C2CCC3(C)C4=CCC5C(C)(C)C(O)CCC5(C)C4CCC23C)CC(O)C1O (stereo unspecified)
inactive: HL-60 12.3 µM | UACC-62 14.5 µM | SF-295 16.9 µM | TK-10 13.6 µM | SF-268 18.3 µM | HCC 2998 15.5 µM | SW-620 17.8 µM | SK-MEL-28 17.3 µM | U-251 15.4 µM | EKVX 14.6 µM | SN12C 18.7 µM | A549 16.5 µM | PC-3 11.3 µM | CCRF-CEM 25.8 µM | SNB-75 15.1 µM | NCI/ADR-RES 20.3 µM | SNB-19 14.8 µM | CAKI-1 14 µM | NCI-H460 17 µM

Nc1nc(Nc2cc(F)c(Cl)c(F)c2)cc(=O)[nH]1
inactive: HL-60 44.3 µM | UACC-62 68.9 µM | SF-295 44.9 µM | TK-10 > 100 µM | SF-268 74.5 µM | HCC 2998 15.9 µM | SW-620 91 µM | SK-MEL-28 > 100 µM | U-251 81.7 µM | EKVX 61.1 µM | SN12C > 100 µM | A549 76.4 µM | PC-3 > 100 µM | CCRF-CEM 66.8 µM | SNB-75 30.7 µM | NCI/ADR-RES > 100 µM | SNB-19 37 µM | CAKI-1 > 100 µM | NCI-H460 > 100 µM

COc1cc2nc(-c3cccs3)nc(N3C(c4ccc(O)cc4)=NNC(=O)c4ccccc43)c2cc1OC
inactive: UACC-62 20.5 µM | SF-295 19.5 µM | TK-10 30.5 µM | SF-268 28.7 µM | HCC 2998 18.6 µM | SW-620 30.4 µM | SK-MEL-28 25.4 µM | U-251 27.8 µM | EKVX 3.9 µM | SN12C 24.2 µM | A549 55.6 µM | PC-3 25.6 µM | CCRF-CEM 4.99 µM | SNB-75 24 µM | NCI/ADR-RES 17.7 µM | SNB-19 35.6 µM | CAKI-1 22.2 µM | NCI-H460 26.5 µM

O=C(/N=N/c1ccccc1Br)NNc1ccccc1Br
inactive: HL-60 23.6 µM | UACC-62 48.8 µM | TK-10 > 100 µM | SF-268 > 100 µM | SR 32.8 µM | HCC 2998 22.5 µM | SW-620 67.1 µM | SK-MEL-28 53.7 µM | U-251 60.8 µM | SN12C 77.6 µM | A549 64.9 µM | PC-3 38.2 µM | CCRF-CEM 31 µM | SNB-75 > 100 µM | SNB-19 > 100 µM | CAKI-1 33 µM | NCI-H460 70.3 µM

CCOC(=O)/C=C(\C(=O)OCC)n1cc(Cl)c(=O)n(CC(=O)OCC)c1=O
inactive: HL-60 2.81 µM | UACC-62 10.9 µM | SF-295 > 43.5 µM | TK-10 1.89 µM | SF-268 17.7 µM | HCC 2998 21.1 µM | SW-620 1.91 µM | SK-MEL-28 16.7 µM | U-251 15.6 µM | EKVX 14.3 µM | SN12C 14.5 µM | A549 19.9 µM | PC-3 14.5 µM | CCRF-CEM 5.09 µM | SNB-75 18.7 µM | NCI/ADR-RES 27.6 µM | SNB-19 18.8 µM | CAKI-1 2.25 µM | NCI-H460 23.4 µM

CCOP(=O)(OCC)C1CC(n2cc(C)c(=O)[nH]c2=O)OC1CO (stereo unspecified)
inactive: HL-60 > 100 µM | UACC-62 > 100 µM | SF-295 > 100 µM | TK-10 > 100 µM | SF-268 > 100 µM | SR > 100 µM | HCC 2998 > 100 µM | SW-620 > 100 µM | SK-MEL-28 > 100 µM | U-251 > 100 µM | SN12C > 100 µM | A549 > 100 µM | PC-3 > 100 µM | CCRF-CEM > 100 µM | SNB-75 > 100 µM | SNB-19 > 100 µM | CAKI-1 > 100 µM | NCI-H460 > 100 µM
